This note sets out measurements from patent US10350271B2, “Lipidated peptides for lowering blood glucose” (USTAV ORGANICKE CHEMIE A BIOCHEMIE AKADEMIE VED CR, V.V.I., priority 2014, dated 2019).

For one assay, the target named is T1, rat PrRP receptor (Rattus norvegicus, UniProt Q64121).
T1 construct: host or cells: RC-4B/C rat pituitary cell line
T1 sequence (Q64121 1-370): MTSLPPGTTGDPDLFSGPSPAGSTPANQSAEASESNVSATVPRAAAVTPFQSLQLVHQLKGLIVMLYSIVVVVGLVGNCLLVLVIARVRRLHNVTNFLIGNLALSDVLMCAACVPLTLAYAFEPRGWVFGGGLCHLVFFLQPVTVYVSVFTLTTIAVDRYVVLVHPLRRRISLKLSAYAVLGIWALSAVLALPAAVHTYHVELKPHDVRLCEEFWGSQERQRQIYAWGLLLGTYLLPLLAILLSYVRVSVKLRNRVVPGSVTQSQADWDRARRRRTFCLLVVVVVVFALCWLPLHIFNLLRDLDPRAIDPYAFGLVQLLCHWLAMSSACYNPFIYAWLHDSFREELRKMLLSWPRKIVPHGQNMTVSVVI
Nature of the assay: Competitive binding in RC-4B/C rat pituitary cells (125I-rat PrRP31). The note with it: for % of PrRP31, RC-4B/C rat pituitary cells: affinity relative to PrRP31. In a few lines:
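Intact rat pituitary RC-4B/C cells incubated 60 min at room temperature with […] rat 125I-PrRP31 and unlabeled analog (10^−11 to 10^−4 mol·l^−1) in HEPES pH 7.4 buffer. Cell-bound radioactivity γ-counted after NaOH lysis; one-site competition fit.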

A further assay relates to C57BL/6 mice. Description: Food intake in fasted mice after SC injection. The assay is classed as in vivo. The note with it: 5 mg/kg SC, 45 min after injection. As for the experimental part:
NMRI mice, C57BL/6 mice, and Wistar rats (AnLab, Prague, Czech Republic) were housed in a temperature of 23° C. and a daily cycle of 12 h light and dark (light from 6:00). They were given ad libitum water and a standard chow diet that contained 25, 9 and 66% of calories of protein, fat and carbohydrate respectively. Energy content of the feed was 3.4 kcal/g (St-1, Mlýn Kocanda, Czech Republic). Db/db mice and their controls (C57BL/6 background) were obtained from Taconic (Denmark), housed under the same conditions as described above, and fed by Altromin (Taconic, Denmark). ZDF-Lepr^fa/Crl, diabetic fa/fa male rats were obtained from Charles River (France), housed under same conditions as described above, and fed with a Purina 5008 diet (IPS Product Supplies Limited, UK). All experiments followed the ethical guidelines for animal experiments and the law of the Czech Republic Nr. 246/1992.
In experiments with C57BL/6 mice or Wistar rats, food intake was measured with overnight fasted animals in individual cages. Food was withdrawn 17 hours prior to injection of lipidated analog of prolactin releasing peptide (PrRP); free access to water was maintained. The administration of either saline, PrRP, or lipidated analogs was performed by SC injection at doses of 1-10 mg/kg (which corresponded to a volume of 0.2 ml/mouse and 0.1 ml/100 g weight of rat). Fifteen minutes after the lipidated analog of prolactin releasing peptide (PrRP) administration, the mice were given pre-weighed food. The food was then weighed every 30 minutes for 5-10 hours. The administration of each dose was performed at least twice, and each group of mice consisted of at least 6 mice.

In assay [1] the target is T2, human PrRP receptor GPR10 (Homo sapiens, UniProt P49683).
T2 construct: host or cells: CHO cells
T2 sequence (P49683 1-370): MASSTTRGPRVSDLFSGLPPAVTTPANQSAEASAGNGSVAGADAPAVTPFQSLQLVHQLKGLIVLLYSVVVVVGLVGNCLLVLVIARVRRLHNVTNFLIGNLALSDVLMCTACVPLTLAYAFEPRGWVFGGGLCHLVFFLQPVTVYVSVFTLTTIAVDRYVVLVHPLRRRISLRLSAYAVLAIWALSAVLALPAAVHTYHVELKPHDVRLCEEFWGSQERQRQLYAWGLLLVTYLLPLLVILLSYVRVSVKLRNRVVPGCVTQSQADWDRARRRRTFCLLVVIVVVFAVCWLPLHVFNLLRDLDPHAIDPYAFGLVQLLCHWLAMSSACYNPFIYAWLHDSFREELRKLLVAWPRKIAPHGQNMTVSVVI
Nature of the assay: Competitive binding in CHO cells transfected with human GPR10 (human 125I-PrRP31). The note with it: for Ki: CHO cells, human 125I-PrRP31, read-out: Ki, GPR10 human receptor transfected in CHO cells; for % of PrRP31, GPR10 human receptor transfected in CHO cells: affinity relative to PrRP31. In a few lines: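 GPR10-transfected CHO cells (40-80 thousand/well) incubated 60 min at room temperature with 5×10^-11 mol·l^-1 human 125I-PrRP31 and unlabeled analog at 10^-11 to 10^-4 mol·l^-1 in Tris binding buffer pH 7.4. Cells solubilized in 0.1 mol/l NaOH, γ-counted; one-site nonlinear regression fit.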

Square brackets hold non-standard residues; d marks the D form. Peptide text beside a SMILES is read from it. * marks the point of attachment. Palmitoyl = CCCCCCCCCCCCCCCC(=O)*; Myristoyl = CCCCCCCCCCCCCC(=O)*; Decanoyl = CCCCCCCCCC(=O)*; Nle = CCCC[C@H](N)C(=O)O; Octanoyl = CCCCCCCC(=O)*

Take `CCCCCCCCCCCCCC(=O)N[C@H](C(=O)N1CCC[C@H]1C(=O)N[C@@H](CC(=O)O)C(=O)N[C@H](C(=O)N[C@@H](CC(N)=O)C(=O)N1CCC[C@H]1C(=O)N[C@@H](C)C(=O)N[C@@H](Cc1c[nH]c2ccccc12)C(=O)N[C@@H](Cc1ccc(O)cc1)C(=O)N[C@H](C(=O)NCC(=O)N[C@@H](CCCNC(=N)N)C(=O)NCC(=O)N[C@H](C(=O)N[C@@H](CCCNC(=N)N)C(=O)N1CCC[C@H]1C(=O)N[C@H](C(=O)NCC(=O)N[C@@H](CCCNC(=N)N)C(=O)N[C@@H](Cc1ccccc1)C(N)=O)C(C)C)[C@@H](C)CC)[C@@H](C)O)[C@@H](C)CC)[C@@H](C)O` [Analog 1] (Myristoyl-TPDINPAWYTGRGIRPVGRF-NH2): at rat PrRP receptor, the “% of PrRP31, RC-4B/C rat pituitary cells” value is recorded as 632%. The “Food intake in mice % of saline-treated group” value (from here on “Food intake in mice %”) with C57BL/6 mice is listed as 32%. Moreover, in assay [1], the Ki stood at 2.93 ± 0.2 nM and the “% of PrRP31, GPR10 human receptor transfected in CHO cells” value (shortened to “% of PrRP31 … in CHO cells”) is listed as 133%.

In the case of `CCCCCCCCCCCCCC(=O)N[C@H](C(=O)N1CCC[C@H]1C(=O)N[C@@H](CC(=O)O)C(=O)N[C@H](C(=O)N[C@@H](CC(N)=O)C(=O)N1CCC[C@H]1C(=O)N[C@@H](C)C(=O)N[C@@H](Cc1c[nH]c2ccccc12)C(=O)N[C@@H](Cc1ccc(O)cc1)C(=O)N[C@@H](C)C(=O)N[C@@H](CO)C(=O)N[C@@H](CCCNC(=N)N)C(=O)NCC(=O)N[C@H](C(=O)N[C@@H](CCCNC(=N)N)C(=O)N1CCC[C@H]1C(=O)N[C@H](C(=O)NCC(=O)N[C@@H](CCCNC(=N)N)C(=O)N[C@@H](Cc1ccccc1)C(N)=O)C(C)C)[C@@H](C)CC)[C@@H](C)CC)[C@@H](C)O` [Analog 2] (Myristoyl-TPDINPAWYASRGIRPVGRF-NH2), the “Displacement of rat 125I-PrRP binding” value on rat PrRP receptor (RC-4B/C cells, rat PrRP receptor) is on record as “nmol·l^−1 range”. Moreover, the “% of PrRP31, RC-4B/C rat pituitary cells” value at rat PrRP receptor is on record as 1027%. Besides, the “Food intake in mice %” value in the assay with C57BL/6 mice is given as 10%. Further, in assay [1], the “% of PrRP31 … in CHO cells” value was found to be 90%. For the same molecule, in assay [1] (human GPR10 receptor), the “Displacement of human 125I-PrRP binding” value is recorded as “nmol·l^−1 range”.

Consider `CCCC[C@H](NC(=O)[C@H](CO)NC(=O)[C@H](Cc1c[nH]cn1)NC(=O)[C@H](CCC(N)=O)NC(=O)[C@H](Cc1c[nH]cn1)NC(=O)[C@H](C)NC(=O)[C@H](CCCNC(=N)N)NC(=O)[C@@H](N)CO)C(=O)N[C@@H](CCC(=O)O)C(=O)N[C@H](C(=O)N[C@@H](CCCNC(=N)N)C(=O)N[C@H](C(=O)N1CCC[C@H]1C(=O)N[C@@H](CC(=O)O)C(=O)N[C@H](C(=O)N[C@@H](CC(N)=O)C(=O)N1CCC[C@H]1C(=O)N[C@@H](C)C(=O)N[C@@H](Cc1c[nH]c2ccccc12)C(=O)N[C@@H](Cc1ccc(O)cc1)C(=O)N[C@H](C(=O)NCC(=O)N[C@@H](CCCNC(=N)N)C(=O)NCC(=O)N[C@H](C(=O)N[C@@H](CCCNC(=N)N)C(=O)N1CCC[C@H]1C(=O)N[C@H](C(=O)NCC(=O)N[C@@H](CCCNC(=N)N)C(=O)N[C@@H](Cc1ccccc1)C(N)=O)C(C)C)[C@@H](C)CC)[C@@H](C)O)[C@@H](C)CC)[C@@H](C)O)[C@@H](C)O` [Analog 3] (H-SRAHQHS[Nle]ETRTPDINPAWYTGRGIRPVGRF-NH2), for which, on rat PrRP receptor, the “% of PrRP31, RC-4B/C rat pituitary cells” value is on record as 385%. For the same molecule, the “Food intake in mice %” value in the assay with C57BL/6 mice was found to be 100%. In addition, in assay [1], the “% of PrRP31 … in CHO cells” value was found to be 203%.

`CCCCCCCC(=O)N[C@@H](CO)C(=O)N[C@@H](CCCNC(=N)N)C(=O)N[C@@H](C)C(=O)N[C@@H](Cc1c[nH]cn1)C(=O)N[C@@H](CCC(N)=O)C(=O)N[C@@H](Cc1c[nH]cn1)C(=O)N[C@@H](CO)C(=O)N[C@@H](CCCC)C(=O)N[C@@H](CCC(=O)O)C(=O)N[C@H](C(=O)N[C@@H](CCCNC(=N)N)C(=O)N[C@H](C(=O)N1CCC[C@H]1C(=O)N[C@@H](CC(=O)O)C(=O)N[C@H](C(=O)N[C@@H](CC(N)=O)C(=O)N1CCC[C@H]1C(=O)N[C@@H](C)C(=O)N[C@@H](Cc1c[nH]c2ccccc12)C(=O)N[C@@H](Cc1ccc(O)cc1)C(=O)N[C@H](C(=O)NCC(=O)N[C@@H](CCCNC(=N)N)C(=O)NCC(=O)N[C@H](C(=O)N[C@@H](CCCNC(=N)N)C(=O)N1CCC[C@H]1C(=O)N[C@H](C(=O)NCC(=O)N[C@@H](CCCNC(=N)N)C(=O)N[C@@H](Cc1ccccc1)C(N)=O)C(C)C)[C@@H](C)CC)[C@@H](C)O)[C@@H](C)CC)[C@@H](C)O)[C@@H](C)O` [Analog 4] (Octanoyl-SRAHQHS[Nle]ETRTPDINPAWYTGRGIRPVGRF-NH2): at rat PrRP receptor, the “% of PrRP31, RC-4B/C rat pituitary cells” value came out at 503%. Also, in the assay with C57BL/6 mice, the “Food intake in mice %” value was 94%. Also, the “% of PrRP31 … in CHO cells” value in assay [1] came to 254%.

Turning to `CCCCCCCCCC(=O)N[C@@H](CO)C(=O)N[C@@H](CCCNC(=N)N)C(=O)N[C@@H](C)C(=O)N[C@@H](Cc1c[nH]cn1)C(=O)N[C@@H](CCC(N)=O)C(=O)N[C@@H](Cc1c[nH]cn1)C(=O)N[C@@H](CO)C(=O)N[C@@H](CCCC)C(=O)N[C@@H](CCC(=O)O)C(=O)N[C@H](C(=O)N[C@@H](CCCNC(=N)N)C(=O)N[C@H](C(=O)N1CCC[C@H]1C(=O)N[C@@H](CC(=O)O)C(=O)N[C@H](C(=O)N[C@@H](CC(N)=O)C(=O)N1CCC[C@H]1C(=O)N[C@@H](C)C(=O)N[C@@H](Cc1c[nH]c2ccccc12)C(=O)N[C@@H](Cc1ccc(O)cc1)C(=O)N[C@H](C(=O)NCC(=O)N[C@@H](CCCNC(=N)N)C(=O)NCC(=O)N[C@H](C(=O)N[C@@H](CCCNC(=N)N)C(=O)N1CCC[C@H]1C(=O)N[C@H](C(=O)NCC(=O)N[C@@H](CCCNC(=N)N)C(=O)N[C@@H](Cc1ccccc1)C(N)=O)C(C)C)[C@@H](C)CC)[C@@H](C)O)[C@@H](C)CC)[C@@H](C)O)[C@@H](C)O` [Analog 5] (Decanoyl-SRAHQHS[Nle]ETRTPDINPAWYTGRGIRPVGRF-NH2), on rat PrRP receptor, the “% of PrRP31, RC-4B/C rat pituitary cells” value came to 758%. Moreover, the “Food intake in mice %” value in the assay on C57BL/6 mice was determined as 57%. The “% of PrRP31 … in CHO cells” value in assay [1] came out at 266%.

In the case of `CCCCCCCCCCCCCCCC(=O)NCCCC[C@H](NC(=O)[C@@H]1CCCN1C(=O)[C@H](CC(N)=O)NC(=O)[C@@H](NC(=O)[C@H](CC(=O)O)NC(=O)[C@@H]1CCCN1C(=O)[C@@H](NC(=O)[C@H](CCCNC(=N)N)NC(=O)[C@@H](NC(=O)[C@H](CCC(=O)O)NC(=O)[C@H](CCSC)NC(=O)[C@H](CO)NC(=O)[C@H](Cc1c[nH]cn1)NC(=O)[C@H](CCCNC(=N)N)NC(=O)[C@H](Cc1c[nH]cn1)NC(=O)[C@@H](NC(=O)[C@H](CCCNC(=N)N)NC(=O)[C@@H](N)CO)[C@@H](C)O)[C@@H](C)CC)[C@@H](C)O)[C@@H](C)CC)C(=O)N[C@@H](Cc1c[nH]c2ccccc12)C(=O)N[C@@H](Cc1ccc(O)cc1)C(=O)N[C@@H](C)C(=O)N[C@@H](CO)C(=O)N[C@@H](CCCNC(=N)N)C(=O)NCC(=O)N[C@H](C(=O)N[C@@H](CCCNC(=N)N)C(=O)N1CCC[C@H]1C(=O)N[C@H](C(=O)NCC(=O)N[C@@H](CCCNC(=N)N)C(=O)N[C@@H](Cc1ccccc1)C(N)=O)C(C)C)[C@@H](C)CC` [Analog 51] (H-SRTHRHSMEIRTPDINPK(Palmitoyl)WYASRGIRPVGRF-NH2), the “Food intake in mice %” value with C57BL/6 mice turned out to be 20%. In addition, in assay [1], the Ki amounted to 7.24 ± 0.13 nM and the “% of PrRP31 … in CHO cells” value worked out at 54%.

Broadly, the Ki is the dissociation constant of the complex between target and ligand, obtained from inhibition or displacement.
